Measured values published in ChEMBL document CHEMBL1132752, “Structure-activity relationships of trans-3,5-disubstituted pyrrolidinylthio-1beta-methylcarbapenems. Part 2: J-111,225, J-114,870, J-114,871 and related compounds” (2000).
Converted amounts (≈) assume the structure as drawn.

Columns and labels:
Format in all cases: functional
[1] = tested on: Pseudomonas aeruginosa; assay: In vitro antimicrobial activity against Pseudomonas aeruginosa AK 109
[2] = tested on: Staphylococcus epidermidis; assay: In vitro antimicrobial activity against methicillin resistant Staphylococcus epidermidis MB5181
[3] = species on record: Sus scrofa; assay: Porcine renal DHP-1 susceptibility.
[4] = tested on: Rattus norvegicus; assay: Epileptogenicity at 200 ug in rat intracerebroventricular assay.
[5] = tested on: Staphylococcus aureus; assay: In vitro antimicrobial activity against methicillin resistant Staphylococcus aureus pMS520
[6] = tested on: Staphylococcus aureus; assay: In vitro antimicrobial activity against Staphylococcus aureus 209P NIHJ JCI
[7] = tested on: Pseudomonas aeruginosa; assay: In vitro antimicrobial activity against ceftazidime resistant Pseudomonas aeruginosa AKR 17
[8] = tested on: Escherichia coli; assay: In vitro antimicrobial activity against Escherichia coli NIHJ JC2

Compound | MIC [1] [µg/mL] | MIC [2] [µg/mL] | Susceptibility [3] | Epileptogenicity [4] | MIC [5] [µg/mL] | MIC [6] [µg/mL] | MIC [7] [µg/mL] | MIC [8] [µg/mL]
C[C@@H](O)[C@H]1C(=O)N2C(C(=O)O)=C(S[C@@H]3CN[C@@H](c4ccc([C@@H](N)CC(N)=O)cc4)C3)[C@H](C)[C@H]12 | 0.78 (≈ 1.64 µM) | 1.56 (≈ 3.29 µM) | 0.27 | 0 | 1.56 (≈ 3.29 µM) | < 0.006 | 1.56 (≈ 3.29 µM) | 0.025 (≈ 0.0527 µM)
C[C@@H](O)[C@H]1C(=O)N2C(C(=O)O)=C(S[C@@H]3CN[C@@H](c4ccc(CN)cc4)C3)[C@H](C)[C@H]12 | 0.39 (≈ 0.934 µM) | 1.56 (≈ 3.74 µM) | 0.29 | 5 | 0.78 (≈ 1.87 µM) | < 0.006 | 3.13 (≈ 7.5 µM) | 0.025 (≈ 0.0599 µM)
C=CCC(N)c1ccc([C@H]2C[C@H](SC3=C(C(=O)O)N4C(=O)[C@H]([C@@H](C)O)[C@H]4[C@H]3C)CN2)cc1 (stereo partly drawn) | 1.56 (≈ 3.41 µM) | 3.13 (≈ 6.84 µM) | 0.29 | 0 | 1.56 (≈ 3.41 µM) | < 0.006 | 12.5 (≈ 27.3 µM) | 0.025 (≈ 0.0546 µM)
C[C@@H](O)[C@H]1C(=O)N2C(C(=O)O)=C(S[C@@H]3CN[C@@H](c4ccc(CNCC(N)=O)cc4)C3)[C@H](C)[C@H]12 | 1.56 (≈ 3.29 µM) | 1.56 (≈ 3.29 µM) | 0.31 | – | 3.13 (≈ 6.6 µM) | < 0.006 | 6.25 (≈ 13.2 µM) | 0.025 (≈ 0.0527 µM)
C[C@@H](O)[C@H]1C(=O)N2C(C(=O)O)=C(S[C@@H]3CN[C@@H](c4cccc(CN)c4)C3)[C@H](C)[C@H]12 | 0.78 (≈ 1.87 µM) | 3.13 (≈ 7.5 µM) | 0.16 | 5 | 1.56 (≈ 3.74 µM) | < 0.006 | 6.25 (≈ 15 µM) | 0.1 (≈ 0.24 µM)
C[C@@H](O)[C@H]1C(=O)N2C(C(=O)O)=C(S[C@@H]3CN[C@@H](c4ccc(CN)c5ccccc45)C3)[C@H](C)[C@H]12 | 6.25 (≈ 13.4 µM) | 0.78 (≈ 1.67 µM) | 0.16 | 5 | 1.56 (≈ 3.34 µM) | < 0.006 | > 25 | 0.05 (≈ 0.107 µM)
C[C@@H](O)[C@H]1C(=O)N2C(C(=O)O)=C(S[C@@H]3CN[C@@H](c4ccc(C(N)C(N)=O)cc4)C3)[C@H](C)[C@H]12 (stereo partly drawn) | 1.56 (≈ 3.39 µM) | 3.13 (≈ 6.8 µM) | 0.32 | 0 | 3.13 (≈ 6.8 µM) | < 0.006 | 6.25 (≈ 13.6 µM) | 0.025 (≈ 0.0543 µM)
CN[C@H](CC(C)C)C(=O)N[C@H]1C(=O)N[C@@H](CC(N)=O)C(=O)N[C@H]2C(=O)N[C@H]3C(=O)N[C@H](C(=O)N[C@H](C(=O)O)c4cc(O)cc(O)c4-c4cc3ccc4O)[C@H](O)c3ccc(c(Cl)c3)Oc3cc2cc(c3O[C@@H]2O[C@H](CO)[C@@H](O)[C@H](O)[C@H]2O[C@H]2C[C@](C)(N)[C@H](O)[C@H](C)O2)Oc2ccc(cc2Cl)[C@H]1O [VANCOMYCIN] | > 100 | – | – | – | 0.78 (≈ 0.538 µM) | 0.39 (≈ 0.269 µM) | > 100 | > 100
C[C@@H](O)[C@H]1C(=O)N2C(C(=O)O)=C(S[C@@H]3CN[C@@H](c4ccc(C(C)(C)N)cc4)C3)[C@H](C)[C@H]12 | 1.56 (≈ 3.5 µM) | 1.56 (≈ 3.5 µM) | 0.37 | 0 | 1.56 (≈ 3.5 µM) | < 0.006 | 6.25 (≈ 14 µM) | 0.05 (≈ 0.112 µM)
CCNCc1ccc([C@H]2C[C@H](SC3=C(C(=O)O)N4C(=O)[C@H]([C@@H](C)O)[C@H]4[C@H]3C)CN2)cc1 | 1.56 (≈ 3.5 µM) | 1.56 (≈ 3.5 µM) | 0.44 | 0 | 1.56 (≈ 3.5 µM) | < 0.006 | 6.25 (≈ 14 µM) | 0.025 (≈ 0.0561 µM)
C/C(N)=N/Cc1ccc([C@H]2C[C@H](SC3=C(C(=O)O)N4C(=O)[C@H]([C@@H](C)O)[C@H]4[C@H]3C)CN2)cc1 | 1.56 (≈ 3.4 µM) | 0.78 (≈ 1.7 µM) | 0.25 | – | 1.56 (≈ 3.4 µM) | < 0.006 | 6.25 (≈ 13.6 µM) | 0.05 (≈ 0.109 µM)
CC(C)NCc1ccc([C@H]2C[C@H](SC3=C(C(=O)O)N4C(=O)[C@H]([C@@H](C)O)[C@H]4[C@H]3C)CN2)cc1 | 0.78 (≈ 1.7 µM) | 1.56 (≈ 3.39 µM) | – | – | 1.56 (≈ 3.39 µM) | < 0.006 | 6.25 (≈ 13.6 µM) | 0.05 (≈ 0.109 µM)
C[C@@H](O)[C@H]1C(=O)N2C(C(=O)O)=C(S[C@@H]3CN[C@@H](c4ccc([C@H](N)CC(N)=O)cc4)C3)[C@H](C)[C@H]12 | 1.56 (≈ 3.29 µM) | 1.56 (≈ 3.29 µM) | 0.27 | 0 | 1.56 (≈ 3.29 µM) | < 0.006 | 1.56 (≈ 3.29 µM) | 0.025 (≈ 0.0527 µM)
CCSCC(N)c1ccc([C@H]2C[C@H](SC3=C(C(=O)O)N4C(=O)[C@H]([C@@H](C)O)[C@H]4[C@H]3C)CN2)cc1 (stereo partly drawn) | 3.13 (≈ 6.37 µM) | 0.78 (≈ 1.59 µM) | 0.27 | – | 1.56 (≈ 3.17 µM) | < 0.006 | 12.5 (≈ 25.4 µM) | 0.025 (≈ 0.0508 µM)
CNCc1ccc([C@H]2C[C@H](SC3=C(C(=O)O)N4C(=O)[C@H]([C@@H](C)O)[C@H]4[C@H]3C)CN2)cc1 | 0.39 (≈ 0.904 µM) | 1.56 (≈ 3.61 µM) | 0.25 | 0 | 0.78 (≈ 1.81 µM) | < 0.006 | 1.56 (≈ 3.61 µM) | 0.025 (≈ 0.0579 µM)
CCC(N)c1ccc([C@H]2C[C@H](SC3=C(C(=O)O)N4C(=O)[C@H]([C@@H](C)O)[C@H]4[C@H]3C)CN2)cc1 (stereo partly drawn) | 3.13 (≈ 7.02 µM) | 1.56 (≈ 3.5 µM) | 0.2 | 0 | 1.56 (≈ 3.5 µM) | < 0.006 | 25 (≈ 56.1 µM) | 0.1 (≈ 0.224 µM)
C[C@@H](O)[C@H]1C(=O)N2C(C(=O)O)=C(S[C@@H]3CN[C@@H](c4ccc(CSC(=N)N)cc4)C3)[C@H](C)[C@H]12 | 1.56 (≈ 3.27 µM) | 1.56 (≈ 3.27 µM) | 0.3 | 3 | 1.56 (≈ 3.27 µM) | < 0.006 | 12.5 (≈ 26.2 µM) | 0.05 (≈ 0.105 µM)
C[C@@H](O)[C@H]1C(=O)N2C(C(=O)O)=C(S[C@@H]3CN[C@@H](c4ccc(CCN)cc4)C3)[C@H](C)[C@H]12 | 0.78 (≈ 1.81 µM) | 3.13 (≈ 7.25 µM) | 0.26 | 3 | 1.56 (≈ 3.61 µM) | < 0.006 | 6.25 (≈ 14.5 µM) | 0.025 (≈ 0.0579 µM)
C[C@@H](O)[C@H]1C(=O)N2C(C(=O)O)=C(S[C@@H]3CN[C@@H](c4ccc(CNCCO)cc4)C3)[C@H](C)[C@H]12 | 0.78 (≈ 1.69 µM) | 1.56 (≈ 3.38 µM) | 0.31 | – | 1.56 (≈ 3.38 µM) | < 0.006 | 6.25 (≈ 13.5 µM) | 0.05 (≈ 0.108 µM)
CNCc1ccc([C@H]2C[C@H](SC3=C(C(=O)O)N4C(=O)[C@H]([C@@H](C)O)[C@H]4[C@H]3C)CN2)o1 | 1.56 (≈ 3.7 µM) | 1.56 (≈ 3.7 µM) | 0.1 | – | 3.13 (≈ 7.43 µM) | < 0.006 | 12.5 (≈ 29.7 µM) | 0.025 (≈ 0.0593 µM)
C[C@@H](O)[C@H]1C(=O)N2C(C(=O)O)=C(S[C@@H]3CN[C@@H](c4ccc(CN=C(N)N)cc4)C3)[C@H](C)[C@H]12 | 0.78 (≈ 1.7 µM) | 0.78 (≈ 1.7 µM) | – | – | 1.56 (≈ 3.39 µM) | < 0.006 | 3.13 (≈ 6.81 µM) | 0.012 (≈ 0.0261 µM)
C[C@@H](O)[C@H]1C(=O)N2C(C(=O)O)=C(S[C@@H]3CN[C@@H](c4ccc(C(N)CCO)cc4)C3)[C@H](C)[C@H]12 (stereo partly drawn) | 1.56 (≈ 3.38 µM) | 6.25 (≈ 13.5 µM) | – | 0 | 3.13 (≈ 6.78 µM) | < 0.006 | 12.5 (≈ 27.1 µM) | 0.05 (≈ 0.108 µM)
